According to patent publication US5929079A, “Trans cyclopentanyl azaadenyl analogs useful as immunosuppressants” (Hoechst Marion Roussel, Inc., priority 1997, dated 1999):
Where a name gives a salt, the structure may show the parent alone.

Key:
[1] = tested on: macrophage antigen presentation to Lewis (LEW/N) rat T-cell hybridoma (Interleukin-2 production); test: Regulation of antigen presentation to rat T-cell hybridoma (Interleukin-2 production); format: cell-based
Method: Using the method of Ku (Cellular Immunology 130,(1990)), and a Lewis (LEW/N) rat T-cell hybridoma reactive with the protein methylated bovine serum albumin (mBSA), the ability of a compound of formula (1) to regulate M.phi. antigen presentation in vitro may be measured. Peritoneal macrophages obtained from LEW/N rats are plated into tissue culture and treated with 100 ug of mBSA and drug. A control is prepared similarly. After a period of 18 hours the cells are washed and incubated with the T-cell hybridoma for an additional 12 hours. Supernatants from these cultures are obtained and measured for content of Interleukin-2, a T-cell derived lymphokine which is roduced by activated T-cells. […] Rat macrophage antigen presentation and the subsequent production of Interleukin-2 are inhibited when rug is administered over a concentration range from 0.1 to 100 uM as illustrated in the following table.

[2] = tested on: endotoxin lethality in CF1 mice; test: Mouse endotoxin lethality model (D-galactosamine/LPS septic shock); format: in vivo; conditions: 100 mg/kg i.p., pretreated at t=-1 hr; death observed over 8-72 hours
Method: Using the method of Silverstein, (J. Exp. Med. 173, 357 (1991)) a mouse endotoxin lethality model may be used to determine if a compound of formula (1) has the ability to inhibit endotoxin-induced septic shock which is dependent on the production of Tumor Necrosis Factor-a (TNF-α). CF1 mice pretreated at time (t)=-1 hr with drug are challenged with 18 mg of D-glactoseamine and 50 ng of LPS, then observed for death over an 8-72 hour period.

## Nc1ncnc2c1ncn2[C@@H]1CC[C@@H](O)C1 [(1R,3R)-TRANS-1(9-ADENYL)CYCLOPENTAN-3-OL HYDROCHLORIDE]
[1]; 0.1 to 100 uM
  Rat macrophage antigen presentation and subsequent production of Interleukin-2: inhibited
[1]; in vitro
  T-cell activation: inhibits T-cell ctivation
[2]
  protection against endotoxin lethality: protects against endotoxin lethality
